Measurements: PMC6384891, “An automated microliter-scale high-throughput screening system (MSHTS) for real-time monitoring of protein aggregation using quantum-dot nanoprobes” (Scientific Reports, 2019)
Read-outs that look alike come from different tables or passages of the source.

Key:
Format in all cases: biochemical
Aβ42 [1] = molecular target: T1, Aβ42 (Homo sapiens, UniProt P05067); assay: manual MSHTS system, Aβ aggregation inhibition
T1 construct: Human Aβ42 (4349-v, Peptide Institute); purchased Peptide Institute 4349-v
T1 sequence (P05067 672-713 limits assumed): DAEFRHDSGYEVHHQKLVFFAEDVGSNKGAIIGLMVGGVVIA
Protocol: The automated MSHTS system used was based on the method described in the Supplementary Methods. In this study, EC50 values of the plant crude extract library and the compound library were measured by the automated MSHTS system and the manual MSHTS system[19],[20], respectively. All fluorescence micrograph images were taken using a 4x objective in the MSHTS systems. […]
concentrations of RA were incubated with 30 µM A β and 30 nM QD 655-labeled Aβ or QD605-labeled Aβ in a 1536-well plate according to our previous reports1,5. Fluorescence micrographs […]
presence of 600 and 120 µM RA.
(1 picture or pasted object on this page, not shown here) […]
(§1) QDAβ were incubated with various concentrations of chaperones i n a 1536-well plate for 24 h at 37 ° C and observed by fluorescence microscopy. C, E, and P indicate CRT , ERp57, and PDI, respectively. EC50 and the SD values were determined from the micrographs of three independent

Aβ42 [2] = molecular target: T1, Aβ42; assay: automated MSHTS system, Aβ aggregation inhibition imaged with QDAβ nanoprobe
Protocol: An outline of the automated MSHTS system developed in this study is as follows (Fig. 1e). First, sample solutions, such as natural extracts and/or chemical compounds, were diluted stepwise in a 384-well plate. The diluted samples in this plate were injected into a 1536-well plate at 2.5 µl per well (Supplementary Fig. S6a). […] The 1536-well plate was sealed, and each well was imaged by a fluorescence microscope system. After incubation to induce aggregation for 24 h at 37 °C, each well was imaged by a fluorescence microscope system. The images were analyzed to determine the SD values of fluorescence intensity of each pixel. The half-maximal effective concentration (EC50) was estimated from the SD values according to our previous method.
The automated MSHTS system used was based on the method described in the Supplementary Methods. In this study, EC50 values of the plant crude extract library and the compound library were measured by the automated MSHTS system and the manual MSHTS system[19],[20], respectively. All fluorescence micrograph images were taken using a 4x objective in the MSHTS systems.
Automated MSHTS system–sample preparation and mixing with Aβ
Sample preparation was carried out using Automated Workstation JANUS G3 (Perkin Elmer).
To make a dilution series of samples, dilution buffer (10%EtOH, 1×PBS) was aspirated ( asp. speed:
20 µl/s) using a conductive chip that can detect liquid level and injected (dsp. height: 0.75 mm, dsp. speed: 10 µl/s) into each well of a 384-well plate (384 Hard-shell micro plate HSP3951, BIO-RAD) without wells for injecting stoc k sample solution. Stock sample solutions were prepared, and were injected manually into the vacant wells of the 384-well plate. As a control without any inhibitor, dilution buffer alone was injected into the well instead of stock sample solution. The stock sample solution or control solution was aspirated (asp. height: 2 mm, asp. speed: 10 µl/s), injected (dsp. height: 4 mm, dsp. speed: 10 µl/s) into the next well containing the dilution buffer, and mixed by pipetting (asp. height: 2 mm, dsp. height: 4 m m , mix speed: 25 µl/s, mix cycles: 5). This dilution st ep was repeated five times, so that si x dilution series were prepared for each sample. The diluted samples in the 384-well plate were aspirated using a 384-chip head (asp. height: 1 mm, asp. speed:
3 µl/s) and injected (quadruplicate) (dsp. height: 1 mm, dsp. speed: 10 µl/s) into a 1536-well plate (1536 well FIA black plate, Greiner Bio-One) at 2.5 µl per well. […]
After centrifugation in a multi-well plate centrifuge, the 1536-well plate was observed by an inverted fluorescence microscope system (ECLIPSE Ti-E, Nikon) equipped with a color CCD camer a (DS-Ri2, Nikon). […]

tau MBD fragment = molecular target: T2, tau MBD fragment (Mus musculus, UniProt P10637); assay: MSHTS system, tau aggregation inhibition with QDTau nanoprobe; conditions: 10 µM tau, 50 nM QDTau, 10 µM heparin, 10 mM DTT, 24 h at 37 °C
T2 construct: added N-terminal methionine (from NdeI site) (N); made in house; host or cells: E. coli Rosetta (DE3) pLys, pET-21a(+)
T2 sequence (P10637 with tags, fused parts or gaps isoform P10637-5 limits assumed): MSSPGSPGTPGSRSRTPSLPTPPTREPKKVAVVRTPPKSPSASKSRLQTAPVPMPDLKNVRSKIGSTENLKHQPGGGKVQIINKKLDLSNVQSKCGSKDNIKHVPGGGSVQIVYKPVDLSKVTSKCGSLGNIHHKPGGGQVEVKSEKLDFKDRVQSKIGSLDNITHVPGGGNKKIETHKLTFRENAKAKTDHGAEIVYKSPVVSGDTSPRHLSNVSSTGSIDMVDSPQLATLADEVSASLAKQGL
Source text: In this study, we used the microtubule-binding domain (MBD) fragment of 4-repeat tau (Fig. 4a) to image tau aggregation. First, we examined the aggregated condition of tau in the presence of heparin, which formed paired helical-like filaments under physiological conditions in vitro, according to early reports[24],[25]. […] Since 4-repeat tau contains two Cys residues (C222 and C253), it may be necessary for aggregation to occur, to inhibit intramolecular disulfide crosslinking, as was reported in a previous report. […] When 10 μM tau was incubated in the presence of 10 mM DTT, the SD value reached a maximum (Supplementary Fig. S10c,d), so we decided to observe aggregation using 10 μM tau. […] We compared tau and Aβ aggregates by TEM observation. The morphology of tau and Aβ fibrils was difficult to distinguish (Fig. 4b). […] We also confirmed by TEM observation that the aggregation of tau and Aβ contained QD nanoprobes (Fig. 4d). These aggregations were directly observed by confocal microscopy in real time (Fig. 4e). […] The imaging method using a QD nanoprobe without a drying step as in TEM observation may be suitable for detailed observation of aggregate shapes in solution.
Supplementary Fig. S11 Inhibition of tau aggregation by RA (a) and spearmint extract (b). 10 µM tau, 50 nM QDTau, 10 µM heparin, 10 mM DTT were incubated with various concentrations of RA […]
for 24 h at 37 ° C and observed by fluorescence microscopy. EC50 and the SD values were determined from the micrographs of three independent wells.
(1 picture or pasted object on this page, not shown here)
as §1, with “Supplementary Fig. S12 Inhibition of tau and Aβ aggregation by chaperones. 10 µM tau, 50 nM QDTau, 10 µM heparin, 10 mM DTT were incubated with various concentrations of chaperon es in a 1536-well plate for 24 h at 37 °C and observed by fluorescence microscopy. 30 µM Aβ , 30 nM QDAβ” for “QDAβ”

Aβ = molecular target: T3, Aβ (Homo sapiens, UniProt P05067); assay: ThT assay of Aβ aggregation
T3 construct: Human Aβ42 (4349-v, Peptide Institute); purchased Peptide Institute 4349-v
T3 sequence (P05067 672-713 limits assumed): as the sequence (P05067 672-713 limits assumed) above
Protocol: The ThT assay was conducted according to the method of Levine[10] modified in our laboratory.

[3] = 1st screening, read-out: EC50 [µM] by MSHTS system, Supplementary Table S2 (converted)
[4] = screening of compound library by MSHTS
[5] = 2nd screening, tropolone derivatives, read-out: EC50 [µM] by MSHTS system, Supplementary Table S3 (converted)
[6] = compound library, Aβ aggregation, read-out: EC50 by MSHTS system (MA), Fig. 3
[7] = Aβ aggregation, read-out: EC50 by ThT assay (TA), Fig. 3
[8] = tropolone derivatives, read-out: ThT [µM], EC50, Supplementary Table S4 (converted)
[9] = 30 µM Aβ, 30 nM QDAβ, 24 h at 37 °C, read-out: EC50 (μM) Aβ

Molecule: Oc1cc2ccccc2cc1O [MO-038]
- EC50 (Aβ42 [1]; [3]): 31.4 µM
- Aβ aggregation inhibitory activity (in words) (Aβ42 [1]; [4]): active

Molecule: O=c1ccc(/N=N/c2cccc([N+](=O)[O-])c2)ccc1O [TR-002]
- EC50 (Aβ42 [1]; [5]): 232 µM

Molecule: O=C(/C=C/c1ccc(O)c(O)c1)O[C@H](Cc1ccc(O)c(O)c1)C(=O)O [RA, rosmarinic acid]
- EC50 (Aβ42 [2]; 25 µM Aβ, 25 nM QDAβ, 1536-well plate, 24 h at 37 °C, average of 61 sets, read-out: EC50 of Aβ aggregation inhibition, positive control): 26.9 ± 4.57 µM
- Aβ aggregation inhibition at 120 µM, mixed by pipetting 10 times (Aβ42 [2]; 120 µM, pipetting 10 times): did not inhibit
- Aβ aggregation inhibition at 120 µM, mixed by pipetting three or five times (Aβ42 [2]; 120 µM, pipetting three or five times): inhibited
- Aβ aggregation at 300 and 60 µM (Aβ42 [2]; 300 and 60 µM, 25 µM Aβ, 24 h at 37 °C): inhibited
- EC50 of tau aggregation inhibition (in words) (tau MBD fragment): could not be determined
- Aβ aggregation at 600 and 120 µM (Aβ42 [1]; 600 and 120 µM, 30 µM Aβ, 30 nM QD655- or QD605-labeled Aβ): inhibited

Molecule: COc1ccc(-c2ccc([N+](=O)[O-])cc2)ccc1=O [MO-011]
- EC50 (Aβ42 [1]; [6]): 200 ± 66 µM
- Aβ aggregation inhibitory activity (in words) (Aβ42 [1]; [4]): active

Molecule: N#Cc1ccc(/N=N/c2ccc(O)c(=O)cc2)cc1C(F)(F)F [TR-007]
- EC50 (Aβ42 [1]; [5]): 13.9 µM
- EC50 (Aβ; [7]): 4.86 ± 0.9 µM

Molecule: N#Cc1cccc(/N=N/c2ccc(O)c(=O)cc2)c1 [TR-027]
- EC50 (Aβ42 [1]; [5]): 38.7 µM
- EC50 (Aβ; [8]): 83 µM

Molecule: COc1ccc(-c2cccc([N+](=O)[O-])c2)ccc1=O [MO-007]
- EC50 (Aβ42 [1]; [6]): 144 ± 62 µM
- Aβ aggregation inhibitory activity (in words) (Aβ42 [1]; [4]): active

Molecule: O=c1ccc(/N=N/c2ccc([N+](=O)[O-])cc2)ccc1O [TR-001]
- EC50 (Aβ42 [1]; [6]): 258 µM

Molecule: O=c1ccc(-c2cccc([N+](=O)[O-])c2)ccc1O [MO-006]
- EC50 (Aβ; [8]): 75 µM

Molecule: CN(C)c1ccc(B(O)O)cc1 [MO-074]
- EC50 (Aβ42 [1]; [3]): 53.1 µM
- Aβ aggregation inhibitory activity (in words) (Aβ42 [1]; [4]): active

Molecule: O=Nc1ccc(O)c(=O)cc1 [MO-020]
- EC50 (Aβ42 [1]; [6]): 154 ± 23 µM
- Aβ aggregation inhibitory activity (in words) (Aβ42 [1]; [4]): active
- EC50 (Aβ; [7]): 152 ± 15 µM

Molecule: O=c1ccc(/N=N/c2cc([N+](=O)[O-])cc([N+](=O)[O-])c2)ccc1O [TR-003]
- EC50 (Aβ42 [1]; tropolone derivatives, read-out: MSHTS [µM], EC50, Supplementary Table S4): 6.6 µM
- EC50 (Aβ; [8]): 18.4 µM

Molecule: O=c1cccccc1O [MO-073]
- EC50 (Aβ; [7]): 1610 µM

Molecule: Nc1ccc(O)c(=O)cc1 [MO-009]
- EC50 (Aβ42 [1]; [3]): 19.1 µM
- Aβ aggregation inhibitory activity (in words) (Aβ42 [1]; [4]): active
- EC50 (Aβ; [8]): 87.6 µM

Molecule: O=c1ccc(-c2ccc([N+](=O)[O-])cc2)ccc1O [MO-010]
- EC50 (Aβ42 [1]; [3]): 52.5 µM
- Aβ aggregation inhibitory activity (in words) (Aβ42 [1]; [4]): active
- EC50 (Aβ; [7]): 144 ± 29 µM

Molecule: Protein disulfide isomerase [PDI]
- EC50 (tau MBD fragment): 12.7 ± 4.6 µM
- EC50 (Aβ42 [1]; [9]): 1 ± 0.206 µM

Molecule: O=C1C=CC(=O)C=C1 [MO-100]
- Aβ aggregation inhibitory activity (in words) (Aβ42 [1]): active
- EC50 (Aβ42 [1]): 56 µM

Molecule: O=c1ccc(/N=N/c2cc(C(F)(F)F)cc(C(F)(F)F)c2)ccc1O [TR-004]
- Aβ aggregation inhibitory activity (in words) (Aβ42 [1]; [4]): no activity

B1: calreticulin (protein, UniProt P27797 18-417, looked up)
Calreticulin: EPAVYFKEQFLDGDGWTSRWIESKHKSDFGKFVLSSGKFYGDEEKDKGLQTSQDARFYALSASFEPFSNKGQTLVVQFTVKHEQNIDCGGGYVKLFPNSLDQTDMHGDSEYNIMFGPDICGPGTKKVHVIFNYKGKNVLINKDIRCKDDEFTHLYTLIVRPDNTYEVKIDNSQVESGSLEDDWDFLPPKKIKDPDASKPEDWDERAKIDDPTDSKPEDWDKPEHIPDPDAKKPEDWDEEMDGEWEPPVIQNPEYKGEWKPRQIDNPDYKGTWIHPEIDNPEYSPDPSIYAYDNFGVLGLDLWQVKSGTIFDNFLITNDEAYAEEFGNETWGVTKAAEKQMKDKQDEEQRLKEEEEDKKRKEEEEAEDKEDDEDKDEDEEDEEDKEEDEEEDVPGQAKDEL
notes: chaperone
- EC50 (tau MBD fragment): 0.843 ± 0.047 µM
- EC50 (Aβ42 [1]; [9]): 0.191 ± 0.04 µM

B2: ERp57: chaperone (protein, UniProt P30101 25-505, looked up)
Protein disulfide-isomerase A3: SDVLELTDDNFESRISDTGSAGLMLVEFFAPWCGHCKRLAPEYEAAATRLKGIVPLAKVDCTANTNTCNKYGVSGYPTLKIFRDGEEAGAYDGPRTADGIVSHLKKQAGPASVPLRTEEEFKKFISDKDASIVGFFDDSFSEAHSEFLKAASNLRDNYRFAHTNVESLVNEYDDNGEGIILFRPSHLTNKFEDKTVAYTEQKMTSGKIKKFIQENIFGICPHMTEDNKDLIQGKDLLIAYYDVDYEKNAKGSNYWRNRVMMVAKKFLDAGHKLNFAVASRKTFSHELSDFGLESTAGEIPVVAIRTAKGEKFVMQEEFSRDGKALERFLQDYFDGNLKRYLKSEPIPESNDGPVKVVVAENFDEIVNNENKDVLIEFYAPWCGHCKNLEPKYKELGEKLSKDPNIVIAKMDATANDVPSPYEVRGFPTIYFSPANKKLNPKKYEGGRELSDFISYLQREATNPPVIQEEKPKKKKKAQEDL
- EC50 (tau MBD fragment): 4.79 ± 1.19 µM
- EC50 (Aβ42 [1]; [9]): 0.321 ± 0.073 µM
